Earlier results as cited in article PMC2918392 (Journal of medicinal chemistry, 2010).

How the values were obtained:
µ-opioid receptor [1] = system: µ-opioid receptor
µ-opioid receptor [2] = conditions: see also ref 1
[3] = system: µ opioid receptors (guinea pig ileum); conditions: read-out: Functional Bioactivity GPI (IC50), ± S.E.M.

Tyr-Pro-Phe-(2S,3S)-β-MePhe-NH2
activity among EM analogues containing β-MePhe stereoisomers, in words (µ-opioid receptor [1]): highest activity

Tyr-Pro-Phe-Phe-NH2 [EM-2]
µ-opioid receptor selectivity, in words (µ-opioid receptor [2]): c Data from reference 16. Binding affinity based on competition against [^3H]naloxone in rat brain membranes. Data were not presented on the affinity of EM2 at the δ-opioid receptor in that preparation, as EM was shown to be highly selective for µ-opioid receptors (see also reference 1). | IC50 [3]: 15 ± 2 nM | affinity and selectivity of activation of µ-opioid receptors, in words (µ-opioid receptor [1]): high affinity and selectivity

Tyr-Pro-Phe-Phe-OH
µ-opioid receptor agonist activity, in words (µ-opioid receptor [1]; C-terminal free acid): completely devoid of µ-opioid receptor agonist activity

Tyr-Pro-Trp-Phe-NH2 [EM-1]
affinity and selectivity of activation of µ-opioid receptors, in words (µ-opioid receptor [1]): high affinity and selectivity
